Experimental data taken from ChEMBL document CHEMBL1201862, “PubChem BioAssay data set” (2004).
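In this assay, cells in 96-well plates receive the compound at five concentrations for 48 hours. Endpoints are linearly interpolated between the surrounding concentrations. Here, GI50 denotes the concentration required for 50% inhibition of growth.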 Active and inactive are the calls of the source. Cut-off read from the data, not from the text of the source: active = GI50 up to about 1.1 µM and inactive = higher. Where a SMILES comes first, the peptide text is derived from it. Bridges are numbered along the chain shown (N, C = ends). [ ]: non-standard residue; d: D form. The star is where a group is joined. ξ: configuration not given here. X28 = O=C(/C=C/C=C/C=C/C=C/C=C/C(=O)*)NC1=C(O)CCC1=O; NMeA = CN[C@@H](C)C(=O)O; ξF = NC(Cc1ccccc1)C(=O)O; ξA = CC(N)C(=O)O

Assays:
Experiment in all cases: DTP human tumour cell line panel, 48 h
M14 = tested on: M14
HT-29 = tested on: HT-29
EKVX = tested on: EKVX
Hs-578T = tested on: Hs-578T
SK-MEL-5 = tested on: SK-MEL-5
HL-60 = tested on: HL-60
OVCAR-3 = tested on: OVCAR-3
KM12 = tested on: KM12
SNB-75 = tested on: SNB-75
OVCAR-5 = tested on: OVCAR-5
MDA-MB-435 = tested on: MDA-MB-435
SF-295 = tested on: SF-295
RPMI-8226 = tested on: RPMI-8226
NCI/ADR-RES = tested on: NCI/ADR-RES
NCI-H23 = tested on: NCI-H23
HCT-116 = tested on: HCT-116
HCT-15 = tested on: HCT-15
NCI-H226 = tested on: NCI-H226
OVCAR-8 = tested on: OVCAR-8
A498 = tested on: A498

Row | Structure (SMILES) | GI50 (M14) | GI50 (HT-29) | GI50 (EKVX) | GI50 (Hs-578T) | GI50 (SK-MEL-5) | GI50 (HL-60) | GI50 (OVCAR-3) | GI50 (KM12) | GI50 (SNB-75) | GI50 (OVCAR-5) | GI50 (MDA-MB-435) | GI50 (SF-295) | GI50 (RPMI-8226) | GI50 (NCI/ADR-RES) | GI50 (NCI-H23) | GI50 (HCT-116) | GI50 (HCT-15) | GI50 (NCI-H226) | GI50 (OVCAR-8) | GI50 (A498)
1 | CC1NC(=O)[C@H](C)N(C)C(=O)[C@@H]2CCCN2C(=O)[C@@H](NC(=O)C(Cc2ccccc2)NC(=O)/C=C/C=C/C=C/C=C/C=C/C(=O)NC2=C(O)CCC2=O)COC(=O)[C@@H]2CCCN2C1=O (some centres undefined) (X28-[ξF]SP[NMeA][ξA]P; ester 2-C) | > 100 µM (inactive) | > 100 µM (inactive) | 96.4 µM (inactive) | 59.2 µM (inactive) | > 100 µM (inactive) | > 100 µM (inactive) | > 100 µM (inactive) | 58.9 µM (inactive) | 64.3 µM (inactive) | > 100 µM (inactive) | > 100 µM (inactive) | > 100 µM (inactive) | > 100 µM (inactive) | > 100 µM (inactive) | > 100 µM (inactive) | > 100 µM (inactive) | > 100 µM |  |  | 
2 | Nc1nc(O)c2ncn(C3C=CC(CO)C3)c2n1 (centres undefined) | > 100 µM (inactive) | > 100 µM (inactive) | > 100 µM (inactive) | > 100 µM (inactive) | > 100 µM (inactive) |  | > 100 µM (inactive) | > 100 µM (inactive) | > 100 µM (inactive) | > 100 µM (inactive) | > 100 µM (inactive) | > 100 µM (inactive) | > 100 µM (inactive) | > 100 µM (inactive) | > 100 µM (inactive) | > 100 µM (inactive) | > 100 µM | > 100 µM (inactive) | > 100 µM (inactive) | > 100 µM (inactive)
3 | O=C1/C(=C/c2cccc(Br)c2)CCc2ccccc21 | 15.8 µM (inactive) | 10.9 µM (inactive) | 17.6 µM (inactive) | 6.05 µM (inactive) |  | 5.68 µM (inactive) | 15.2 µM (inactive) | 4.02 µM (inactive) | 14.5 µM (inactive) | 14.9 µM (inactive) | 12.4 µM (inactive) | 15.2 µM (inactive) | 2.99 µM (inactive) | 14 µM (inactive) | 15.8 µM (inactive) | 7.69 µM (inactive) | 11.5 µM | 15.2 µM (inactive) | 16.1 µM (inactive) | 
4 | CCOc1ccc(NC(=O)C(=O)C(/C(=N/N)C(=O)OC)c2nc3ccc([N+](=O)[O-])cc3nc2O)cc1 (centres undefined) | > 100 µM (inactive) | > 100 µM (inactive) | > 100 µM (inactive) | > 100 µM (inactive) | > 100 µM (inactive) |  | > 100 µM (inactive) | > 100 µM (inactive) | > 100 µM (inactive) | > 100 µM (inactive) | > 100 µM (inactive) | > 100 µM (inactive) | 24.2 µM (inactive) | > 100 µM (inactive) | > 100 µM (inactive) | > 100 µM (inactive) | > 100 µM | > 100 µM (inactive) | > 100 µM (inactive) | > 100 µM (inactive)
5 | NS(=O)(=O)c1ccc(NNC(=O)c2cccc3c(=O)c4ccccc4[nH]c23)cc1 | > 100 µM (inactive) | 66.8 µM (inactive) | 43.6 µM (inactive) | 72.8 µM (inactive) | 34 µM (inactive) | 35 µM (inactive) | 56.9 µM (inactive) | 42.1 µM (inactive) | > 100 µM (inactive) | > 100 µM (inactive) | 88.1 µM (inactive) | 91 µM (inactive) | 54.7 µM (inactive) | > 100 µM (inactive) | > 100 µM (inactive) | 52.1 µM (inactive) | 62.8 µM | > 100 µM (inactive) | > 100 µM (inactive) | 
6 | CN(CCNC(=S)c1cn(C)c2c1ccc1ccccc12)CCNC(=S)c1cn(C)c2c1ccc1ccccc12 |  | 27.5 µM (inactive) | 67.9 µM (inactive) | 69.2 µM (inactive) | > 100 µM (inactive) |  | > 100 µM (inactive) | 37.1 µM (inactive) | 10.7 µM (inactive) | > 100 µM (inactive) | 96.8 µM (inactive) | 99.3 µM (inactive) |  | > 100 µM (inactive) | 48 µM (inactive) | 24.4 µM (inactive) | > 100 µM |  | > 100 µM (inactive) | 
7 | Cc1ccc(C(=O)N/N=C(\N=N\c2ccccc2C(=O)O)c2ccc(N(C)C)cc2)cc1 | 64.6 µM (inactive) | > 100 µM (inactive) | 75.2 µM (inactive) | > 100 µM (inactive) | > 100 µM (inactive) | 53.5 µM (inactive) | 22.2 µM (inactive) | 42.9 µM (inactive) |  | > 100 µM (inactive) | 22.9 µM (inactive) | 41.6 µM (inactive) | > 100 µM (inactive) | 71.6 µM (inactive) | > 100 µM (inactive) | > 100 µM (inactive) | 64.7 µM | > 100 µM (inactive) | > 100 µM (inactive) | 
8 | COc1cc(-c2coc3c(OC)c(OC4OC(CO)C(O)C(O)C4O)c(OC)cc3c2=O)cc(OC)c1C (centres undefined) | 4.45 µM (inactive) | 7.03 µM (inactive) | 11.8 µM (inactive) | 4.17 µM (inactive) | 12.1 µM (inactive) | 4.53 µM (inactive) | 7.26 µM (inactive) | 4.79 µM (inactive) | 6.22 µM (inactive) | 14.2 µM (inactive) | 3.85 µM (inactive) | 11.7 µM (inactive) | 4.54 µM (inactive) | 7.36 µM (inactive) | 3.98 µM (inactive) | 1.69 µM (inactive) | 3.66 µM | 25.7 µM (inactive) | 3.38 µM (inactive) | 
9 | COc1ccc(N2C(=O)C3c4[nH]c5ccccc5c4C4CCC(c5ccccc5)CC4C3C2=O)cc1 (centres undefined) | 30.5 µM (inactive) | > 57.5 µM (inactive) | 25.1 µM (inactive) | 5.74 µM (inactive) | 26.1 µM (inactive) |  | > 64 µM (inactive) | > 70.5 µM (inactive) | 6.04 µM (inactive) | 45.1 µM (inactive) | > 50.5 µM (inactive) | 22.9 µM (inactive) | 18.5 µM (inactive) | > 34.2 µM (inactive) | 19.8 µM (inactive) | > 39.8 µM (inactive) | 36 µM | > 45.7 µM (inactive) | 17.3 µM (inactive) | 29 µM (inactive)
10 | Nc1nc2ccc(Sc3ccc4nc(N)[nH]c(=O)c4c3)cc2c(=O)[nH]1 | > 100 µM (inactive) | > 100 µM (inactive) | > 100 µM (inactive) | > 100 µM (inactive) | > 100 µM (inactive) | > 100 µM (inactive) | > 100 µM (inactive) | > 100 µM (inactive) | > 100 µM (inactive) | > 100 µM (inactive) | > 100 µM (inactive) | 59.2 µM (inactive) | > 100 µM (inactive) | > 100 µM (inactive) | > 100 µM (inactive) | > 100 µM (inactive) | > 100 µM | 14.1 µM (inactive) | > 100 µM (inactive) | 
11 | Clc1ccc(-c2c3nc(c(-c4ccc(Cl)cc4)c4ccc([nH]4)c(-c4ccc(Cl)cc4)c4nc(c(-c5ccc(Cl)cc5)c5ccc2[nH]5)C=C4)C=C3)cc1 | > 100 µM (inactive) | > 100 µM (inactive) | > 100 µM (inactive) | 40.1 µM (inactive) | > 100 µM (inactive) | > 100 µM (inactive) | > 100 µM (inactive) | > 100 µM (inactive) | 20.8 µM (inactive) | > 100 µM (inactive) | > 100 µM (inactive) | > 100 µM (inactive) | > 100 µM (inactive) | > 100 µM (inactive) | > 100 µM (inactive) |  | > 100 µM |  | > 100 µM (inactive) | 
12 | CCOc1nc2sc3c(c2c(=O)n1CCSSCCn1c(OCC)nc2sc4c(c2c1=O)CCCC4)CCCC3 | > 100 µM (inactive) | > 100 µM (inactive) | > 100 µM (inactive) | > 100 µM (inactive) | > 100 µM (inactive) |  | > 100 µM (inactive) | > 100 µM (inactive) | > 100 µM (inactive) | > 100 µM (inactive) | > 100 µM (inactive) | > 100 µM (inactive) | > 100 µM (inactive) | > 100 µM (inactive) | > 100 µM (inactive) | > 100 µM (inactive) | > 100 µM | 56.4 µM (inactive) | 67.8 µM (inactive) | > 100 µM (inactive)
13 | Fc1cc(-c2cc(-c3ccccc3)n[nH]2)c(Cl)cc1Cl | > 100 µM (inactive) | > 100 µM (inactive) | 61.7 µM (inactive) | > 100 µM (inactive) | > 100 µM (inactive) | 28.9 µM (inactive) | > 100 µM (inactive) | > 100 µM (inactive) | > 100 µM (inactive) | > 100 µM (inactive) | > 100 µM (inactive) | > 100 µM (inactive) | 30.9 µM (inactive) | > 100 µM (inactive) | > 100 µM (inactive) | > 100 µM (inactive) | > 100 µM | 50.7 µM (inactive) | > 100 µM (inactive) | 
14 | CC(C1CCCC1=O)C1CCCC1=O (centres undefined) | > 100 µM (inactive) | > 100 µM (inactive) | > 100 µM (inactive) | 92 µM (inactive) | > 100 µM (inactive) | > 100 µM (inactive) |  | > 100 µM (inactive) | > 100 µM (inactive) | > 100 µM (inactive) |  | > 100 µM (inactive) |  | > 100 µM (inactive) | > 100 µM (inactive) | > 100 µM (inactive) | > 100 µM | > 100 µM (inactive) | > 100 µM (inactive) | 
15 | C=C(C)C1CC(=O)C(C)=C(O)C1 (centres undefined) | > 100 µM (inactive) | > 100 µM (inactive) | > 100 µM (inactive) | > 100 µM (inactive) | > 100 µM (inactive) | > 100 µM (inactive) |  | > 100 µM (inactive) | > 100 µM (inactive) | > 100 µM (inactive) |  | > 100 µM (inactive) |  | > 100 µM (inactive) | > 100 µM (inactive) | > 100 µM (inactive) | > 100 µM | > 100 µM (inactive) | > 100 µM (inactive) | 
